According to patent publication US20110165271A1, “ANTITUMORAL TERPENOID PHARMACEUTICAL COMPOSITION 'ABISILIN' EXHIBITING ANGIOGENESIS-INHIBITING ACTION” (priority 2008, published 2011):

Legend:
[1] = test system: colon adenocarcinoma (CAC); experiment: Antitumor activity on transplantable tumor; format: in vivo, mice
Description: (§1) The mice and rats were purchased from the Experimental Animal Division of the Blokhin Russian Oncologic Center, the Russian Academy of Medicinal Sciences, and maintained on an ordinary food ration.
(§2) Sunflower seed oil was used as the solvent for the pharmaceutical.
(§3) Cisplatin purchased from Bristol-Myers Squibb was used in the experiments.
(§4) Abisilin was administered to animals orally every day for 10 days, or in the following schedule: on the 2nd and 6th days or on the 2nd and 11th days. […] In the combined treatment, Abisilin was administered to mice orally every day for 10 days, beginning 48 h after tumor transplantation, in a dose of 50 mg/kg; the antitumor agent Cisplatin was administered once intraperitonially (ip) in a dose of 5 mg/kg. Animals bearing the aforementioned tumors were monitored until they died. The antitumor effects of the pharmaceutical were judged from percentage tumor growth inhibition (TGI, %) in the experimental animals against control animals.
(§5) The statistical significance of the antitumor effect against the untreated control was determined by the Fisher-Student test. The difference between the compared groups was regarded as statistically reliable when p≦0.05.

[2] = test system: melanoma B-16; experiment: Antitumor activity on transplantable tumor; format: in vivo, mice; conditions: Abisilin 50 mg/kg per os days 2-11 and/or Cisplatin 5 mg/kg once day 2
Description: as §1, §2, §3, §4, §5

[3] = test system: breast adenocarcinoma Ca-755; experiment: Antitumor activity on transplantable tumor; format: in vivo, mice; conditions: Abisilin 50 mg/kg per os days 2-11 and/or Cisplatin 5 mg/kg once day 2
Description: as §1, §2, §3, §4, §5

[4] = test system: metastatic colorectal cancer; conditions: patients bearing metastatic colorectal cancer; increase from 15.6 months; cited from earlier work

| Molecule | TGI ([1]; day 7, Abisilin 50 mg/kg per os days 2-11 and/or Cisplatin 5 mg/kg once day 2) | TGI ([1]; day 12, Abisilin 50 mg/kg per os days 2-11 and/or Cisplatin 5 mg/kg once day 2) | TGI ([1]; day 21, Abisilin 50 mg/kg per os days 2-11 and/or Cisplatin 5 mg/kg once day 2) | TGI ([1]; day 22, Cisplatin 5 mg/kg once day 2) | sensitivity of the tumor in monotherapy ([1]; monotherapy, Abisilin 50 mg/kg, Cisplatin 5 mg/kg) | TGI ([2]; day 7) | TGI ([2]; day 9) | TGI ([2]; day 11) | TGI ([2]; day 17) | TGI ([3]; day 7) | TGI ([3]; day 11) | TGI ([3]; day 14) | TGI ([3]; day 18) | TGI ([3]; day 22) | total survival period [4] |
| --- | --- | --- | --- | --- | --- | --- | --- | --- | --- | --- | --- | --- | --- | --- | --- |
| N.N.[Cl][Pt][Cl] [Cisplatin] | 0% | 22% | 14% | 35% | insensitive | 80% | 83% | 65% | 19% | 86% | 62% | 52% | 43% | 39% |  |
| Avastin: monoclonal antibody drug binding vascular endothelial growth factor (VEGF); active substance bevacizumab |  |  |  |  |  |  |  |  |  |  |  |  |  |  | 20.3 months |
